Measured values reported in patent US9808434B2, “Compound for treating cancer and diabetes” (CITY OF HOPE, priority 2011, dated 2017).

What was measured:
[1] = tested on: Glioma Cells PBT-017 and/or U251; assay: Combination index COH-SR4 and 5-FU, cell line not stated; format: cell-based; settings: COH-SR4 <0.5 μM + 5-FU <125 μM
Experimental: Effects of combination of COH-SR4 and a chemotherapy drug such as TMZ, SN38, CPT-11, and 5-FU were studied by combination index (CI) theorem and plot using the method described in Chou (“Experimental Design, and Computerized Simulation of Synergism and Antagonism in Drug Combination Studies,” Pharmacological Reviews, Vol. 58, No. 3), which is incorporated herein by reference in its entirety.
COH-SR4 and a chemotherapy drug (TMZ, SN38, CPT-11, or 5-FU) were dissolved in DMSO individually, and then diluted to the appropriate concentration in the same cell culture media before applying to cells of each cell line. After 4 days, the amount of ATP present in the cell lysates were assessed using Progema's CellGlo kit. The CI of each combination of COH-SR4 and the chemotherapy drug was calculated and plotted against the concentration of COH-SR4 for each concentration of the chemotherapy drug used.

[2] = tested on: normal human aortic vascular smooth muscle cells (HAVSMC); assay: MTT assay, HAVSMC; format: cell-based
Experimental: Cell density measurements were performed using a hemocytometer to count reproductive cells resistant to staining with trypan blue. Approximately 20,000 cells were plated into each well of 96-well flat-bottomed micro-titer plates. After 12 h or 24 h incubation at 37° C., medium containing either COH-SR4 (ranging 0-200 μM) or elesclomol (ranging 0-20 μM) were added to the cells. After 24 h, 48 h or 96 h incubation, 20 μL of 5 mg/mL MTT were introduced to each well and incubated for 2 h. The plates were centrifuged and medium was decanted. Cells were subsequently dissolved in 100 μl DMSO with gentle shaking for 2 h at room temperature, followed by measurement of OD570 (91).

U87 = assay: Glioma ATP viability assay, U87; format: cell-based; settings: Homo sapiens, U-87 MG; Table 1; 72 hours
Experimental: (§1) Cells of each cell line (U251, U87, PBT-017, PBT018, PBT003 and PBT028) were treated with various concentrations (0˜100 μM) of COH-SR4 for 72 hours. Cell viabilities were determined by ATP viability assays. Data were represented as a ratio to vehicle (DMSO) control, and plotted as mean±SEM (n=12) obtained from 2˜3 experiments (FIG. 34A).
as §1, with “(U87, U251,” for “(U251, U87, PBT-017, PBT018,”, “PVT-017)” for “PBT028)”, “2-3” for “2˜3”, “34B).” for “34A).”

Stat3, HIF-1α = assay: Stat3 phosphorylation and HIF-1α expression in SKOV3, immunoblotting; format: cell-based, human; settings: SKOV3, 24 hours, 1-10 μM
Experimental: SKOV3 cells were incubated with various concentrations of COH-SR4 (1˜10 μM) for 24 hours. Whole-cell lysates were analyzed by immunoblotting with antibodies against phosphorylated and total form of Stat3, Akt and MAPK, and HIF-1α. GAPDH was used as a loading control.

PBT028 = assay: Glioma ATP viability assay, PBT028; format: cell-based; settings: Table 1; 72 hours
Experimental: as §1

[3] = COH-SR4 in mice serum, HPLC analysis; format: in vivo, mouse; settings: 4 mg/kg oral
Experimental: Hsd: Athymic nude nu/nu mice obtained from Harlan, Indianapolis, Ind. were used for the oral administration of COH-SR4 on lung cancer progression in in-vivo xenograft model. Twelve 10-weeks-old mice were divided into two groups of 6 animals (treated with corn oil (vehicle), and COH-SR4 4 mg/kg b.w.). All animals were subcutaneously injected with 2×10^6 H358 cells in 100 μL of PBS into one flank of each mouse. Treatment was started 10 days after the implantation of cells to see palpable tumor growth. Treatment consisted of 0.1 mg (4 mg/kg b.w.) of COH-SR4/mice in 200 μL corn oil by oral gavage alternate day. Control groups were treated with 200 μL corn oil by oral gavage alternate day. Animals were examined daily for signs of tumor growth and body weights were recorded. […] Tumors were measured in two dimensions using calipers. […] (FIG. 81B). […] Photographs of animals were taken at day 1, day 10, day 14, day 18, day 30 and day 60 after subcutaneous injection, are shown for all groups (FIG. 81D). The absorption of orally administered COH-SR4 in mice was assessed.

[4] = tested on: A2058, A101D and SK-Mel-28 melanoma cells; assay: Mitochondrial ROS, MitoSox Red; format: cell-based, human; settings: 5 μM, 1 h
Experimental: Briefly, cells (4×10^5 well) were seeded in a 6-well plate and incubated overnight. Twenty-four hours after plating, cells were treated with test compounds as indicated in each experiment. After washing with pre-warmed PBS, cells were incubated with fresh medium containing 5 μM MitoSox Red for 15 min at 37° C. The fluorescence intensity was measured at of 530ex/590em using flow cytometry (Cyan ADP). The cells only sample (no MitoSox dye added) was used as the background. Approximately 30,000 counts were made for each sample. Experiments were repeated for three times and at least duplicate samples were included in each experiment.
Mitochondrial ROS was measured by MitoSox Red according to the manufacturer's instructions (Molecular Probes, CA). The intensity of fluorescence was quantified by digital analysis of images obtained from confocal microscopy using Image Pro Premiere software (Media Cybernetics Inc., Bethesda, Md.) (A2058, FIG. 74A) or by flow cytometry (FIG. 74B). Cells were treated with either 5 μM of COH-SR4, rotenone (mitochondrial complex 1 inhibitor) or elesclomol for 1 h. *Results represent fold increase of ROS generation over control and are expressed as mean±SD from three independent experiments.

Question: For O=C(Nc1cc(Cl)cc(Cl)c1)Nc1cc(Cl)cc(Cl)c1 [COH-SR4, 1,3-bis(3,5-dichlorophenyl) urea], which “combination effect (CI) with 5-FU” value [1] is on record?
Answer: synergism

Question: And the “cytotoxicity in normal cells” value ([2]; 96 h)?
Answer: did not cause any significant cytotoxicity

Question: What about the “cytotoxicity in normal cells” value ([2]; concentrations effective in lung cancer cell lines, 48 h) of the same compound?
Answer: did not exert any significant cytotoxicity

Question: And the IC50 (U87)?
Answer: 2800 nM

Question: What about the “phosphorylation of Stat3 and HIF-1α protein expression” value (Stat3, HIF-1α) of the same compound?
Answer: inhibited phosphorylation of Stat3 protein and HIF-1α protein expression

Question: And the IC50 (PBT028)?
Answer: 2000 nM

Question: And the serum concentration [3]?
Answer: 1.1 ± 0.3 µM

Question: What about the “mitochondrial ROS production (MitoSox Red)” value [4] of the same compound?
Answer: induced ROS production
